We go through 5 compounds from patent publication US6414035B1, “Use of polyols in combating yeast infection and polyol preparations for said use” (priority 1997, dated 2002).

Test [1] concerns Candida isolate from AIDS patient No 1. The test can be described thus: Sensitivity test of Candida isolate to antifungals. Conditions: for sensitivity of the isolate: Candida isolate from AIDS patient No 1. It counts as cell-based.
Test [2] concerns Candida (oral or esophageal candidiasis). Nature of the test: Open label pilot trial of dietary xylitol intake in AIDS patients with candida mucositis. Format: in vivo, human. Details: pain symptoms (score) / Sympt. score: scale not given here. The text has this:
An open label, pilot trial was designed to test the effect of the strategy of dietary xylitol intake in replacement of sugar in patients with candida mucositis. AIDS patients with oral or esophageal candidiasis were selected as subjects for the study because of the frequency and the severity of candida mucositis that they usually develop. Patients with AIDS were considered eligible for the test after their oral or esophageal lesions were documented by microscopic examination of scrapings to be of Candida origin. They were free to continue on any antifungal therapy they might be receiving. Instructions were given to replace the saccharose that they normally take with coffee or tea for crystalline xylitol. Also, to avoid excess sweets like ice cream, cakes. cookies, and artificially flavored drinks that contain glucose. The following was done at baseline and thereafter every 7 days: 1. Pictures of the lesions 2. Tongue imprints in Sabouraud agar 3. Quantitative Candida cultures on unstimulated saliva (CFU/ml) 4. Pain questionnaire (numerical pain scale) 5. Weight 6. Patients kept a daily record of food and drink.

For test [3], the system named is salivary Candida. Conditions: diet of human test group during 8 months; cited from earlier work.
Test [4] has as its system Candida albicans. The test can be described thus: Growth in vitro of Candida albicans in Muller Hinton broth with sweeteners (optical density 650 nm). Conditions: 10% concentration, 12 strains. Format: cell-based. The text has this: A test was designed to determine the effect on the growth in vitro of Candida albicans of xylitol, lactitol, sorbitol and aspartame in comparison to glucose and a non-carbohydrate control medium. The tested substances have all been used in the food industry as sweeteners. The sweetness of the substances in the above order is respectively 100%, 40%, 60% and 20.000% of the sweetness of glucose.
12 strains of Candida albicans obtained from patients with AIDS and oral candida mucositis were evaluated. The strains were inoculated on Sabouraud agar plates (20% dextrose) and incubated at room temperature for 48 hours. One colony from each plate was inoculated in Muller Hinton broth (without sweetener) and left for 18 hours at 35° C. The tubes were standardized to Mac Farland 0.5 (5×10^6 CFU/ml) and 100 μl inoculated in triplicate in spectrophotometer tubes containing 3 ml of Muller Hinton broth at final concentrations of glucose (5% and 10%); xylitol (5% and 10%); lactitol (5%, 8.3% and 10%); sorbitol (5%, 10% and 12.5%); and aspartame (0.025% and 0.05%). 3 tubes with Muller Hinton broth without carbohydrate was also inoculated to serve as controls.
Optical densities (650 nm) were determined at 0, 24 and 48 hours time. The average of three readings per time, per sweetener concentration was calculated and recorded. […]

Test [5] has as its system Candida (recurrent oral candidiasis). Nature of the test: Pilot study of xylitol replacing dietary saccharose in patients with recurrent oral candidiasis. Format: in vivo, human. The text has this:
A pilot study was designed to test the effect of xylitol on the clinical course, Candida salivary counts, and antifungal needs of patients with recurrent oral candidiasis. The patients were instructed to replace their dietary saccharose with crystalline xylitol and to avoid excess saccharose-containing-foods and beverages.
Of 14 patients admitted to the test, 8 completed more than 14 days of follow up. The result was that all 8/8 experienced at least 70% regression of their lesions (improvement) with minimal antifungal therapy (1 nystatin tablet 500,000 U/per day); 5/8 had complete regression of the lesions (cure); and 6/8 decreased their salivary Candida counts by 2 logs.

For test [6], the system named is Candida isolate from AIDS patient No 1. Nature of the test: Growth of Candida isolate on Muller Hinton agar with sugar or sugar alcohol. Conditions: 5 and 10%, FIG. 1. Format: cell-based. As for the experimental part:
The effect of sugar alcohols on the growth of said Candida isolate was tested on Muller Hinton agar with 5 and 10% glucose or 5 and 10% xylitol and a control without sugar.

For test [7], the system named is Candida. Conditions: cited from earlier work.

Structures are written as SMILES. Marks after values point to notes of the source that are not given here. Some results are limits rather than exact numbers.

Consider `C[C@@H]1[C@H](O)[C@@H](C)/C=C/C=C/C=C/C=C/C=C/C=C/C=C/[C@H](O[C@@H]2O[C@H](C)[C@@H](O)[C@H](N)[C@@H]2O)C[C@@H]2O[C@](O)(C[C@@H](O)C[C@@H](O)[C@H](O)CC[C@@H](O)C[C@@H](O)CC(=O)O[C@H]1C)C[C@H](O)[C@H]2C(=O)O` [Amphotericin B], for which, in test [1], the “sensitivity of the isolate” value was “sensitive”.
In general, MIC refers to the least concentration at which growth counts as inhibited. `OC(Cn1cncn1)(Cn1cncn1)c1ccc(F)cc1F` [Fluconazole]: the follow up esophagoscopy result in test [2] (AIDS patient No 2, a month later, fluconazole p.o. for 15 days during xylitol trial) is “no lesions”. Further, in test [1] (Candida), the MIC is more than 256 µg/mL. Besides, the “sensitivity of the isolate” value in test [1] is listed as “resistant”.
Turning to `O=C(CO)[C@@H](O)[C@H](O)[C@H](O)CO` [fructose], the “number of persons with salivary Candida growth” value (“number of persons” for short) in test [3] is “slight increase”.
`OC[C@H]1O[C@@](CO)(O[C@H]2O[C@H](CO)[C@@H](O)[C@H](O)[C@H]2O)[C@@H](O)[C@@H]1O` [sucrose]: the “number of persons” value in test [3] is listed as “slight increase”.
Turning to `OC[C@@H](O)[C@H](O)[C@@H](O)CO` [xylitol], the “rank among tested compounds at reducing the growth of Candida in vitro” value in test [4] is “by far the best”. In addition, in test [5] (1 patient, previously fluconazole resistant isolate (E test)), the “lesions and fungal cultures after 4 months of xylitol intake” value was “without lesions and sterile fungal cultures”. Further, in test [5] (more than 14 days follow up), the “patients who decreased their salivary Candida counts by 2 logs” value is reported as 6/8. For the same compound, the “patients with complete regression of the lesions (cure)” value in test [5] (more than 14 days follow up) is given as 5/8. For the same compound, the “patients with at least 70% regression of their lesions (improvement)” value in test [5] (more than 14 days follow up, with minimal antifungal therapy (1 nystatin tablet 500,000 U/per day)) was 8/8. Also, in test [5] (three patients), the “time to return to baseline after returning to saccharose intake” value was 3 days. The esophageal lesions result in test [2] (AIDS patient No 2, Candida esophagitis, two weeks after start of xylitol intake, no antifungal therapy) is given as “unchanged lesions”. Further, the Sympt. score in test [2] (AIDS patient No 2, day 1) was 18; in test [2] (AIDS patient No 2, day 7), 0; in test [2] (AIDS patient No 2, day 15), 0; in test [2] (AIDS patient No 2, day 22) it was 0; in test [2] (AIDS patient No 2, day 29), 0; in test [2] (AIDS patient No 2, day 36), 0. In addition, the Sympt. score in test [2] (AIDS patient No 2, day 50) was 0; in test [2] (AIDS patient No. 1, day 1), 18; in test [2] (AIDS patient No. 1, day 8), 0; in test [2] (AIDS patient No. 1, day 18) it was 0; in test [2] (AIDS patient No. 1, day 29), 0; in test [2] (AIDS patient No. 1, day 36), 0. The Sympt. score stood at 0 in test [2] (AIDS patient No. 1, day 56) and 0 in test [2] (AIDS patient No. 1, day 80). Further, the Weight in test [2] (AIDS patient No 2, day 1) is listed as 58,5 Kg; in test [2] (AIDS patient No 2, day 7), 58,5 Kg; in test [2] (AIDS patient No 2, day 15), 58,5 Kg; in test [2] (AIDS patient No 2, day 22), 57,5 Kg; in test [2] (AIDS patient No 2, day 29), 57,2 Kg; in test [2] (AIDS patient No 2, day 36), 57,7 Kg. In addition, the Weight in test [2] (AIDS patient No 2, day 50) is 56,9 Kg; in test [2] (AIDS patient No. 1, day 1), 62 kg; in test [2] (AIDS patient No. 1, day 8) it was 62.6 kg; in test [2] (AIDS patient No. 1, day 18), 73.4 kg; in test [2] (AIDS patient No. 1, day 29) it was 73 kg; in test [2] (AIDS patient No. 1, day 36), 74.8 kg. The Weight in test [2] (AIDS patient No. 1, day 56) was 75 kg; in test [2] (AIDS patient No. 1, day 80), 75.1 kg. Besides, the CFU/ml saliva in test [2] (AIDS patient No 2, day 7) was 0 CFU/ml; in test [2] (AIDS patient No 2, day 15, counted at 72 hours) it was 3,6 × 10^3** CFU/ml; in test [2] (AIDS patient No 2, day 22, counted at 72 hours, fluconazole p.o. started after two weeks), 4,5 × 10^2** CFU/ml; in test [2] (AIDS patient No 2, day 29, fluconazole p.o. started after two weeks), 0 CFU/ml; in test [2] (AIDS patient No 2, day 36, fluconazole p.o. 15 days given after two weeks), 0 CFU/ml; in test [2] (AIDS patient No 2, day 50, fluconazole p.o. 15 days given after two weeks), 0 CFU/ml. In test [2] (AIDS patient No. 1, about 30 g crystalline xylitol daily), the symptom-free follow-up period was 80 days. For the same compound, the Candida counts result in test [2] (AIDS patient No. 1, after 2.5 months) is “still negative”; in test [2] (AIDS patient No. 1, day seven), “negative”. The CFU/mL saliva in test [2] (AIDS patient No. 1, day 1, counted at 48 hours) is 1×10^4 CFU/mL; in test [2] (AIDS patient No. 1, day 8, plates held for 7 days), 0** CFU/mL; in test [2] (AIDS patient No. 1, day 18, plates held for 7 days), 0** CFU/mL; in test [2] (AIDS patient No. 1, day 29, plates held for 7 days), 0** CFU/mL; in test [2] (AIDS patient No. 1, day 36, plates held for 7 days), 0** CFU/mL; in test [2] (AIDS patient No. 1, day 56, plates held for 7 days), 0** CFU/mL. In addition, in test [2] (AIDS patient No. 1, day 80, plates held for 7 days), the CFU/mL saliva is reported as 0** CFU/mL. In test [2] (AIDS patient No. 1, follow-up of 80 days), this compound gave a weight gained of 13.1 kilograms. Also, the “time to disappearance of the lesions” value in test [2] (AIDS patient No. 1, ketoconazole discontinued on day four) turned out to be 1 week. Further, in test [2] (AIDS patient No. 1, on ketoconazole until day four), the “improvement noticed by the patient” value is recorded as “clear improvement on day four”. Besides, the “time to recurrence of oral candidiasis after stopping the xylitol trial” value in test [2] (AIDS patient No. 3) came out at 4 days. The “pain symptoms (score)” value in test [2] (AIDS patient No. 3, at start) was found to be 30; in test [2] (AIDS patient No. 3, in the first 17 days, 1 nystatin troche during the first five days), 8. The saliva counts result in test [2] (AIDS patient No. 3, first 17 days) is “diminished”. The “growth of Candida isolate compared to control without sugar” value in test [6] is listed as “inhibited in a dose dependent way”. For the same compound, the “number of persons” value in test [3] is “significantly reduced”. For the same compound, the “Candida growth and invasion compared to controls” value in test [7] (given instead of glucose) is “did not increase”. In test [7] (immunocompromised mice), the “invasion of gastrointestinal mucosa by Candida relative to mice receiving glucose” value was “five times less”. Moreover, the “scores of invasion versus control mice receiving no sugar” value in test [7] (immunocompromised mice) was “not significantly different”.
